Experimental data taken from US11753403B2, “EIF4E inhibitors and uses thereof” (PIC Therapeutics, Inc., priority 2020, dated 2023).

Molecular target: Human eIF4E (aa 28-217) / biotin labeled 4G2 peptide (Homo sapiens (Human), UniProt P06730)
Experiment: Human eIF4E/4G2 binding assay (TR-FRET)
Conditions: Human eIF4E/4G2 TR-FRET binding assay; head says IC50, legend says EC50
Outline: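 Refolded His-tagged human eIF4E (aa 28-217), 82.5 nM working stock, preincubated 4 h at RT with compounds (10-point 2-fold series) in NaPi pH 6.5 buffer with DTT and gamma globulin. Biotin-4G2 peptide then added for 20 min, followed by Eu-streptavidin/APC-anti-His for 20 min; TR-FRET 665/615 nm ratio normalized, IC50 fitted.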

Sequence of Human eIF4E (aa 28-217) / biotin labeled 4G2 peptide (P06730 28-217): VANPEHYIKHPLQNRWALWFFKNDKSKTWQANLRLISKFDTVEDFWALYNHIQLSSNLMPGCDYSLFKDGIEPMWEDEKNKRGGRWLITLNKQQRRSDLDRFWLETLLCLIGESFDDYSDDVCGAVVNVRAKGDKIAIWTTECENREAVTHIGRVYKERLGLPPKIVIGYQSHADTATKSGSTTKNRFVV

IC50 [nM]	Compound
≤ 1000	CC(C)c1sc(Nc2ncc(-c3ccccc3)cc2C(=O)O)nc1-c1ccc(Cl)c(C(F)(F)F)c1 [I-262, 2-(4-(4-chloro-3-(trifluoromethyl)phenyl)-5-isopropylthiazol-2-ylamino)-5-phenylnicotinic acid]
≤ 1000	CC(C)c1sc(Nc2ncc(-c3cccs3)cc2C(=O)O)nc1-c1ccc(Cl)c(C(F)(F)F)c1 [I-263]
≤ 1000	CC(C)c1sc(Nc2ncc(Cc3ccccc3)cc2C(=O)O)nc1-c1ccc(Cl)c(Cl)c1 [I-264]
≤ 1000	CC(C)c1sc(Nc2ncc(Cc3ccccc3)cc2C(=O)O)nc1-c1ccc(Cl)c(C(F)(F)F)c1 [I-265]
≤ 1000	CC(C)c1sc(Nc2ncc(-c3cccc(F)c3)cc2C(=O)O)nc1-c1ccc(Cl)c(Cl)c1 [I-266]
≤ 1000	COc1cccc(-c2cnc(Nc3nc(-c4ccc(Cl)c(Cl)c4)c(C(C)C)s3)c(C(=O)O)c2)c1 [I-267]
≤ 1000	COc1cc(-c2cnc(Nc3nc(-c4ccc(Cl)c(Cl)c4)c(C(C)C)s3)c(C(=O)O)c2)ccn1 [I-268]
1000 to 10000	Cn1nnnc1-c1sc(Nc2ccsc2C(=O)O)nc1-c1ccc(Cl)c(Cl)c1 [I-269, 3-(4-(3,4-dichlorophenyl)-5-(1-methyl-1H-tetrazol-5-yl)thiazol-2-ylamino)thiophene-2-carboxylic acid]
≤ 1000	CC(C)Cc1sc(Nc2cc(-c3ccccc3)sc2C(=O)O)nc1-c1ccc(Cl)c(Cl)c1 [I-270]
≤ 1000	CC(C)Cc1sc(Nc2cc(-c3ccc(F)cc3)sc2C(=O)O)nc1-c1ccc(Cl)c(Cl)c1 [I-271]
≤ 1000	CC(C)Cc1sc(Nc2cc(-c3cccc(Cl)c3)sc2C(=O)O)nc1-c1ccc(Cl)c(Cl)c1 [I-272]
≤ 1000	CC(C)Cc1sc(Nc2cc(-c3cccnc3)sc2C(=O)O)nc1-c1ccc(Cl)c(Cl)c1 [I-273]
≤ 1000	CC(C)Cc1sc(Nc2cc(C(C)(C)C)sc2C(=O)O)nc1-c1ccc(Cl)c(Cl)c1 [I-274]
≤ 1000	Cc1c(-c2ccccc2)sc(C(=O)O)c1Nc1nc(-c2ccc(Cl)c(Cl)c2)c(CC(C)C)s1 [I-275]
1000 to 10000	CC(C)Cc1sc(Nc2ccsc2C(=O)NCCN)nc1-c1ccc(Cl)c(Cl)c1 [I-276, N-(2-aminoethyl)-3-(4-(3,4-dichlorophenyl)-5-isobutylthiazol-2-ylamino)thiophene-2-carboxamide]
1000 to 10000	CC(C)c1sc(Nc2ccsc2C(=O)NCCN)nc1-c1ccc(Cl)c(Cl)c1 [I-277]
≤ 1000	CC(C)c1sc(Nc2cc(-c3ccccc3)sc2C(=O)O)nc1-c1ccc(Cl)c(Cl)c1 [I-278]
≤ 1000	CC(C)c1sc(Nc2cc(-c3ccccc3)sc2C(=O)O)nc1-c1ccc(Cl)c(C(F)(F)F)c1 [I-279, 3-(4-(4-chloro-3-(trifluoromethyl)phenyl)-5-isopropylthiazol-2-ylamino)-5-phenylthiophene-2-carboxylic acid]
≤ 1000	CC(C)c1sc(Nc2c(C(=O)O)sc3ccccc23)nc1-c1ccc(Cl)c(Cl)c1 [I-280]
≤ 1000	CC(C)c1sc(Nc2c(C(=O)O)sc3ccccc23)nc1-c1ccc(Cl)c(C(F)(F)F)c1 [I-281]
≤ 1000	CC(C)c1sc(Nc2ncc(-c3ccccn3)cc2C(=O)O)nc1-c1ccc(Cl)c(Cl)c1 [I-282, 6′-(4-(3,4-dichlorophenyl)-5-isopropylthiazol-2-ylamino)-2,3′-bipyridine-5′-carboxylic acid]

IC50 [nM]	Compound
≤ 1000	CC(C)c1sc(Nc2ncc(C3CC3)cc2C(=O)O)nc1-c1ccc(Cl)c(Cl)c1 [I-283]
> 10000	CC(C)c1sc(Nc2ncccc2C(=N)N)nc1-c1ccc(Cl)c(Cl)c1 [I-284, 2-(4-(3,4-dichlorophenyl)-5-isopropylthiazol-2-ylamino)nicotinimidamide]
> 10000	CC(C)c1sc(Nc2ncc(-c3ccccc3)cc2C(=N)N)nc1-c1ccc(Cl)c(Cl)c1 [I-285]
> 10000	CC(C)Cc1sc(Nc2ccccc2C#N)nc1-c1ccc(Cl)c(Cl)c1 [I-286]
> 10000	COC(=O)c1ccc(Nc2nc(-c3ccc(Cl)c(Cl)c3)c(CC(C)C)s2)n1C [I-287]
> 10000	COC(=O)c1ccc(Nc2nc(-c3ccc(Cl)c(Cl)c3)c(CC(C)C)s2)o1 [I-288]
≤ 1000	O=C(O)c1sc(C2CCCC2)cc1Nc1nc(CCc2ccccc2)c(-c2ccc(Cl)c(Cl)c2)s1 [I-309]
≤ 1000	O=C(O)c1sc(C2CCCC2)cc1Nc1nc(Cc2ccccc2)c(-c2ccccc2)s1 [I-310]
≤ 1000	CC(C)c1sc(Nc2ncc(C(F)(F)F)cc2C(=O)O)nc1-c1nc2ccccc2s1 [I-320, 2-(4-(benzo[d]thiazol-2-yl)-5-isopropylthiazol-2-ylamino)-5-(trifluoromethyl)nicotinic acid]
≤ 1000	CC(C)Cc1sc(Nc2ncc(C(F)(F)F)cc2C(=O)O)nc1-c1ccc2ccccc2c1 [I-321]
≤ 1000	CC(C)Cc1sc(Nc2ncc(-c3ccc4ccccc4c3)cc2C(=O)O)nc1-c1ccc(Cl)c(Cl)c1 [I-322, 2-(4-(3,4-dichlorophenyl)-5-isobutylthiazol-2-ylamino)-5-(naphthalen-2-yl)nicotinic acid]
≤ 1000	CC(C)c1sc(Nc2ncc(C(F)(F)F)cc2C(=O)O)nc1-c1ccc(Cl)cc1Cl [I-323, 2-(4-(2,4-dichlorophenyl)-5-isopropylthiazol-2-ylamino)-5-(trifluoromethyl)nicotinic acid]
≤ 1000	COc1ccc(-c2nc(Nc3ncc(-c4cccs4)cc3C(=O)O)sc2C(C)C)cc1Cl [I-324]
≤ 1000	COc1ccc(-c2nc(Nc3ncc(C(F)(F)F)cc3C(=O)O)sc2CC(C)C)cc1Cl [I-325]
≤ 1000	COc1ccc(-c2nc(Nc3ncc(C(F)(F)F)cc3C(=O)O)sc2C(C)C)cc1Cl [I-326]
≤ 1000	COCCOc1ccc(-c2nc(Nc3ncc(-c4cccs4)cc3C(=O)O)sc2CC(C)C)cc1Cl [I-327]
≤ 1000	CC(C)Cc1sc(Nc2ncc(-c3cccs3)cc2C(=O)O)nc1-c1ccc(OCC(N)=O)c(Cl)c1 [I-329, 2-(4-(4-(2-amino-2-oxoethoxy)-3-chlorophenyl)-5-isobutylthiazol-2-ylamino)-5-(thiophen-2-yl)nicotinic acid]
≤ 1000	CCOc1ccc(-c2nc(Nc3ncc(-c4cccs4)cc3C(=O)O)sc2CC(C)C)cc1Cl [I-330]
≤ 1000	CC(C)Cc1sc(Nc2ncc(-c3cccs3)cc2C(=O)O)nc1-c1ccc(OCCO)c(Cl)c1 [I-331]
≤ 1000	CC(C)Cc1sc(Nc2ncc(-c3cccs3)cc2C(=O)O)nc1-c1ccc(OCC2CC2)c(Cl)c1 [I-332]
≤ 1000	COc1ccc(-c2nc(Nc3ncc(-c4cccs4)cc3C(=O)O)sc2CC(C)C)cc1 [I-333]
